≈ marks a conversion by molar mass, not a printed value.
What was measured:
P388 = experiment: Cytotoxicity against mouse P388 cells; type: functional; details: read-out: ED50 (the source's name)
L1210 = experiment: Cytotoxicity against mouse L1210 cells; type: functional; details: read-out: ED50 (the source's name)

SMILES | EC50 (P388) [µg/mL] | EC50 (L1210) [µg/mL]
COC(=O)[C@]12OC[C@]34[C@H]([C@@H](O)[C@@H]1O)[C@@]1(C)C(=O)C(O[C@@H]5O[C@H](CO)[C@@H](O)[C@H](O)[C@H]5O)=C[C@@H](C)[C@@H]1C[C@H]3OC(=O)[C@H](OC(=O)/C=C(\C)C(C)(C)OC(C)=O)[C@@H]24 [Bruceantinoside C] | 2.12 (≈ 2.76 µM) | 3.5 (≈ 4.55 µM)
O=c1[nH]cc(F)c(=O)[nH]1 [FLUOROURACIL] | 3.72 (≈ 28.6 µM) | 1.94 (≈ 14.9 µM)
COC(=O)[C@]12OC[C@]34[C@H]([C@@H](O)[C@@H]1O)[C@@]1(C)C=C(O[C@@H]5O[C@H](CO)[C@@H](O)[C@H](O)[C@H]5O)C(=O)[C@@H](C)[C@@H]1C[C@H]3OC(=O)[C@H](OC(=O)/C=C(\C)C(C)(C)OC(C)=O)[C@@H]24 [Yadanzioside G] | 1.25 (≈ 1.63 µM) | 2.58 (≈ 3.36 µM)
COC(=O)[C@]12OC[C@]34[C@H]([C@@H](O)[C@@H]1O)[C@@]1(C)C(=O)C(O[C@@H]5O[C@H](CO)[C@@H](O)[C@H](O)[C@H]5O)=C[C@@H](C)[C@@H]1C[C@H]3OC(=O)[C@H](OC(=O)/C=C(\C)C(C)C)[C@@H]24 [Yadanzioside N] | 2.24 (≈ 3.15 µM) | 4.56 (≈ 6.42 µM)
